From ChEMBL document CHEMBL1201862, “PubChem BioAssay data set” (2004)
The source made the active and inactive calls.

Tests used:
[1] = target: Keap1/Nrf2 (Homo sapiens, UniProt Q14145); assay: disruptors of Keap1 binding to Nrf2 peptide – biochemical, fluorescence polarization, cherry-picked samples, dose response (AID 588683)
[2] = target: DNA dC->dU-editing enzyme APOBEC-3A (Homo sapiens, UniProt P31941); assay: Dose Response confirmation of small molecule APOBEC3A DNA Deaminase Inhibitors via a fluorescence-based single-stranded DNA deaminase assay. [Related pubchem assays (depositor defined):AID493011, AID493024]; assay type: functional
Sequence of DNA dC->dU-editing enzyme APOBEC-3A (P31941 whole entry): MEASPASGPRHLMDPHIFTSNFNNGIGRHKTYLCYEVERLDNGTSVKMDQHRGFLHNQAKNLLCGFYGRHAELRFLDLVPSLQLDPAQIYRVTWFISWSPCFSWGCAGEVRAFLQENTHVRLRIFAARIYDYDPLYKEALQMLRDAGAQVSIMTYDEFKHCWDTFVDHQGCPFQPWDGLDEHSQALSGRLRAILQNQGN

[3] = target: DNA dC->dU-editing enzyme APOBEC-3G (Homo sapiens, UniProt Q9HC16); assay type: functional;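 note: Dose-response counterscreen measuring inhibition of APOBEC3G DNA deaminase activity, run while confirming APOBEC3A inhibitors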
Sequence of DNA dC->dU-editing enzyme APOBEC-3G (Q9HC16 whole entry, the tested form may be a part): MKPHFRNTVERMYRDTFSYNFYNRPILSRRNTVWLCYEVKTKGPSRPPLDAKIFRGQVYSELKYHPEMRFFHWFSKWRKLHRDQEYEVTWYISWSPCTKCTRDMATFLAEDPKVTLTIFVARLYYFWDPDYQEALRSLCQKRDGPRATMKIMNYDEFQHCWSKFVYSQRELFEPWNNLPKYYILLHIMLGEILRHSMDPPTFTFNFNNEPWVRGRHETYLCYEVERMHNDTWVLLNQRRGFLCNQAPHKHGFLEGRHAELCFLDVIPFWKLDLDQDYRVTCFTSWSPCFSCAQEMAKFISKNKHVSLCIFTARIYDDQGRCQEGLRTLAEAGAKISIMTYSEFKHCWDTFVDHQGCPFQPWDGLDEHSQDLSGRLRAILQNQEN

[4] = target: T1, RNA-binding protein pos-1 (Caenorhabditis elegans, UniProt G5EF15); assay: disruptors of C. elegans POS-1 RNA interaction – biochemical, fluorescence polarization, dose response (AID 1964);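 note: purified POS-1 fused to maltose binding protein made in E. coli; potency of compounds blocking POS-1 binding to fluorescent RNA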
T1 sequence (G5EF15 whole entry): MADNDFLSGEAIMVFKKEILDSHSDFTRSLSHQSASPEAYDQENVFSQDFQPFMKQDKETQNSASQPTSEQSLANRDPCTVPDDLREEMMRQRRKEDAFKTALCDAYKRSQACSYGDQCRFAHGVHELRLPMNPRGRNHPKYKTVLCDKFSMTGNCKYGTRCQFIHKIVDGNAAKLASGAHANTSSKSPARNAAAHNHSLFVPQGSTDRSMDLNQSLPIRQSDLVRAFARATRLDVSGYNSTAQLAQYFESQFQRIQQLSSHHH

[5] = target: T2, Zinc finger protein mex-5 (Caenorhabditis elegans, UniProt Q9XUB2); assay: potency of MEX-5 RNA-binding blockers – biochemical, C. elegans, fluorescence polarization, dose response (AID 1960)
T2 sequence (Q9XUB2 whole entry): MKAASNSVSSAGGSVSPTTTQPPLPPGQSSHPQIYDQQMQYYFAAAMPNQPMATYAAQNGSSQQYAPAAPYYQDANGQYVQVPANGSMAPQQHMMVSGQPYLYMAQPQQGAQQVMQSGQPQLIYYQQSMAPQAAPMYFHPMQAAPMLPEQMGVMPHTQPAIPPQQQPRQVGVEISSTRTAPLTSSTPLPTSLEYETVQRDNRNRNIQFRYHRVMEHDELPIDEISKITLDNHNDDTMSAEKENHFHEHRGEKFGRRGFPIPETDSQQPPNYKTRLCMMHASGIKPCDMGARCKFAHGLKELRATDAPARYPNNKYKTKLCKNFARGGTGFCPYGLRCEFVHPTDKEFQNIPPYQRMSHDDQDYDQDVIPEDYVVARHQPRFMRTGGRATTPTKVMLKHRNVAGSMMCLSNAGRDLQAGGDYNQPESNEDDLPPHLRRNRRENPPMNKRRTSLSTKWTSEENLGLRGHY

[6] = target: Eukaryotic translation initiation factor 4E (Mus musculus, UniProt P63073); assay: blockers of eIF4G binding by eIF4E – biochemical, TR-FRET, dose response (AID 855); assay type: functional;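 note: potency for disrupting eIF4E binding to eIF4GI seen as loss of FRET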
Sequence of Eukaryotic translation initiation factor 4E (P63073 whole entry): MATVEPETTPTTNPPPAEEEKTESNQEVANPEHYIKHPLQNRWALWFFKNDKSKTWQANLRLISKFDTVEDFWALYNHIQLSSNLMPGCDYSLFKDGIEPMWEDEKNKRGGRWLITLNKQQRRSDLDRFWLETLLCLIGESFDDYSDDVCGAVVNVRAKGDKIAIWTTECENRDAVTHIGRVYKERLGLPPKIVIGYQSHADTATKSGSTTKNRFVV

[7] = cells
[8] = target: T3, Protein RecA (Mycobacterium tuberculosis, UniProt P9WHJ3); assay: Fluorescence Cell-Free Homogeneous Dose Retest to Identify Inhibitors of RecA-Intein Splicing Activity. [Related pubchem assays (depositor defined):AID2097, AID2223, AID489010, AID492950]; assay type: functional
T3 sequence (P9WHJ3 whole entry): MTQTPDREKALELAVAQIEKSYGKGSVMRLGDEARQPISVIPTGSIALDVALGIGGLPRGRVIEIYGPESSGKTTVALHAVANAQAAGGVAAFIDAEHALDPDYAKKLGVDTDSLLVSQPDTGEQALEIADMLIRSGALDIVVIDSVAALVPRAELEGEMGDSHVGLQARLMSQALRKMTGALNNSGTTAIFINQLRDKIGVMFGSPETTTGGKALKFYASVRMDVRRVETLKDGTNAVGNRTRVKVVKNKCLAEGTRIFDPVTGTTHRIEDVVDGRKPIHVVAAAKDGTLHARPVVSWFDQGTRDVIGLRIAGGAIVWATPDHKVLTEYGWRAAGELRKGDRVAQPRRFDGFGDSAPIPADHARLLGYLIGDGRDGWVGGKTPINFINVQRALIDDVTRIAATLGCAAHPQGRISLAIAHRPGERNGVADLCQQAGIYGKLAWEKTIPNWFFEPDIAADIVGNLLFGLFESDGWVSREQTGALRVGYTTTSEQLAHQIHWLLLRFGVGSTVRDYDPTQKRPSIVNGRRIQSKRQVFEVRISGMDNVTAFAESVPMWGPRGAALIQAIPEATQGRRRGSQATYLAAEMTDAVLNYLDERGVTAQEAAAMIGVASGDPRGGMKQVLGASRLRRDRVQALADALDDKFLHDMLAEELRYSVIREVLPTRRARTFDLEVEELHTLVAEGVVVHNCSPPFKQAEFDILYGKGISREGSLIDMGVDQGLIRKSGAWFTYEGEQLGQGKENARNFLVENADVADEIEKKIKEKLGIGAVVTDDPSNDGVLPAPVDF

[9] = target: T4, Replicative DNA helicase DnaB (Mycobacterium tuberculosis, UniProt P9WMR3); assay: DnaB intein splicing inhibitors, dose response, biochemical, cell-free fluorescence (AID 449749); assay type: functional
T4 sequence (P9WMR3 whole entry): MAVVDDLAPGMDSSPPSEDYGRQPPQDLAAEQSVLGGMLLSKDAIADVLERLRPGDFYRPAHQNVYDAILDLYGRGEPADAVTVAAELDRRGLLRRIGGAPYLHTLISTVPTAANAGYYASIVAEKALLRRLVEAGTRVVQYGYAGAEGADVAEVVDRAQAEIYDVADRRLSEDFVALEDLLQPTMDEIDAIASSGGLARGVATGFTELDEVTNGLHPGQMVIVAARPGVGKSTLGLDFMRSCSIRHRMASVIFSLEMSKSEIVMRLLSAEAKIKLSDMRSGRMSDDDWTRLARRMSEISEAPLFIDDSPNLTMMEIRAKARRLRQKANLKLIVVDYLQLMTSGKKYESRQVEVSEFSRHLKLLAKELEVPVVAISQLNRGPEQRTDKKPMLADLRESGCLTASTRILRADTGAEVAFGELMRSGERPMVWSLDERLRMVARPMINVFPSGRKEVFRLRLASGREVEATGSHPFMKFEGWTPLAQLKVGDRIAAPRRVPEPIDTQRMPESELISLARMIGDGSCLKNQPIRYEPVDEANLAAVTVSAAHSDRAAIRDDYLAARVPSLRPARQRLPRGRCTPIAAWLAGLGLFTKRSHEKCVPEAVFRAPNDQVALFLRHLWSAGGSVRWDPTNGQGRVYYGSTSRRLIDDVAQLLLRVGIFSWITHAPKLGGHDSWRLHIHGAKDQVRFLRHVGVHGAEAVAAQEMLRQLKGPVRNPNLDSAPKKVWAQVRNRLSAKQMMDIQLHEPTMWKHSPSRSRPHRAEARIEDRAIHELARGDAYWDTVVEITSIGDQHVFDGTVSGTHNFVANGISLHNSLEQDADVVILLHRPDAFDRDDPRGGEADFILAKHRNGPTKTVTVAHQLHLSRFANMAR

[10] = target: T5, Hexokinase HKDC1 (Homo sapiens, UniProt Q2TB90); assay: inhibition of HKDC1 glucose phosphorylation – biochemical, W721R variant, dose response (AID 504729); assay type: functional
T5 sequence (Q2TB90 whole entry): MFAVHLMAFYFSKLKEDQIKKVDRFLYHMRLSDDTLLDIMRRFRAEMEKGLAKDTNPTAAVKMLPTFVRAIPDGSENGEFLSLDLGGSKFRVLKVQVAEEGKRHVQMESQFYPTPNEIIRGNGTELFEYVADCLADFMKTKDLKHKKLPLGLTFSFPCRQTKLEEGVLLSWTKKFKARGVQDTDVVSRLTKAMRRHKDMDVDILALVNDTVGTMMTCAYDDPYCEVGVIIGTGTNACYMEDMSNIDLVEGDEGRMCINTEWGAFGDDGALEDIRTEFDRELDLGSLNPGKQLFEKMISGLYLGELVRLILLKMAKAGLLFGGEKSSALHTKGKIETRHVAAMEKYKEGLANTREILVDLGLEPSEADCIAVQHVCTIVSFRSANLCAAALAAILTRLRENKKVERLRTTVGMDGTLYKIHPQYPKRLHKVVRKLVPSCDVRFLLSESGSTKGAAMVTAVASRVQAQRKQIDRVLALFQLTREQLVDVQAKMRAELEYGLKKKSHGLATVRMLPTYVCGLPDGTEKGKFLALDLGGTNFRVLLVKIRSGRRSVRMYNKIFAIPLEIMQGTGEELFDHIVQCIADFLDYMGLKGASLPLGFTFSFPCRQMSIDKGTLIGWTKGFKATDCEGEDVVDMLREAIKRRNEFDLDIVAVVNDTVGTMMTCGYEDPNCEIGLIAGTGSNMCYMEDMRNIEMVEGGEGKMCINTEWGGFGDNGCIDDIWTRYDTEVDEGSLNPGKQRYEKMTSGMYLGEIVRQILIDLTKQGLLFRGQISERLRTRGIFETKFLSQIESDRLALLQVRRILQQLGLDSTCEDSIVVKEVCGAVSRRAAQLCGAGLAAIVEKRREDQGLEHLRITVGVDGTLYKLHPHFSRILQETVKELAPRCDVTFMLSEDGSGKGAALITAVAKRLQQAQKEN

[11] = system: HEK293; assay: cells; conditions: Homo sapiens;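 note: cells exposed to compound for 14 hours overnight before viability readout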
[12] = target: Tumor necrosis factor (Homo sapiens, UniProt P01375); assay: analog potency on TNFa NF-kB signaling – cell-based, revised, SAR follow-up (AID 2337); assay type: functional
Sequence of Tumor necrosis factor (P01375 whole entry): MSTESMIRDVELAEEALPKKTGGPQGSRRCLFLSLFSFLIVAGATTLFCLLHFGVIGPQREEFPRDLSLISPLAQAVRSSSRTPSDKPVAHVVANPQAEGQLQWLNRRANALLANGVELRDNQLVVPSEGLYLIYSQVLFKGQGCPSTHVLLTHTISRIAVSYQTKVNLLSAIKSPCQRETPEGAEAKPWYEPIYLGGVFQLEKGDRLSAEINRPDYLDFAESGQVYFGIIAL

Sequence of Keap1/Nrf2 (Q16236 whole entry): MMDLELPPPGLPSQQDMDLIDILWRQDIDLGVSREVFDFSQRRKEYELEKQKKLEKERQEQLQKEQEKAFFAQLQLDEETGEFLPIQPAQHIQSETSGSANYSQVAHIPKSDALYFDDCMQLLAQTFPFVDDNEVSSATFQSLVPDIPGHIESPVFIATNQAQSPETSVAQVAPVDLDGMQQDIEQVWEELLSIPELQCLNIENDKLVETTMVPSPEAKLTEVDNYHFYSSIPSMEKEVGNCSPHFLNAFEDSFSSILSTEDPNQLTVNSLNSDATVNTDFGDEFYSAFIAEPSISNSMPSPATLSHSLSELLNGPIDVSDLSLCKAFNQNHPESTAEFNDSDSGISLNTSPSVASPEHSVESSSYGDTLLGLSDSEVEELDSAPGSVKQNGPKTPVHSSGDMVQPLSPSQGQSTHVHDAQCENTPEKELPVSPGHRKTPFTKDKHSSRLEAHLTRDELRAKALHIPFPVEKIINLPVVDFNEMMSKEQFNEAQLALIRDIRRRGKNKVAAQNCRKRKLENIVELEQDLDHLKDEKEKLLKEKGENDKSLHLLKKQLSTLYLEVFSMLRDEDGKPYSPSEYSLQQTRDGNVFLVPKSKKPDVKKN
Sequence of Keap1/Nrf2 (Q14145 whole entry): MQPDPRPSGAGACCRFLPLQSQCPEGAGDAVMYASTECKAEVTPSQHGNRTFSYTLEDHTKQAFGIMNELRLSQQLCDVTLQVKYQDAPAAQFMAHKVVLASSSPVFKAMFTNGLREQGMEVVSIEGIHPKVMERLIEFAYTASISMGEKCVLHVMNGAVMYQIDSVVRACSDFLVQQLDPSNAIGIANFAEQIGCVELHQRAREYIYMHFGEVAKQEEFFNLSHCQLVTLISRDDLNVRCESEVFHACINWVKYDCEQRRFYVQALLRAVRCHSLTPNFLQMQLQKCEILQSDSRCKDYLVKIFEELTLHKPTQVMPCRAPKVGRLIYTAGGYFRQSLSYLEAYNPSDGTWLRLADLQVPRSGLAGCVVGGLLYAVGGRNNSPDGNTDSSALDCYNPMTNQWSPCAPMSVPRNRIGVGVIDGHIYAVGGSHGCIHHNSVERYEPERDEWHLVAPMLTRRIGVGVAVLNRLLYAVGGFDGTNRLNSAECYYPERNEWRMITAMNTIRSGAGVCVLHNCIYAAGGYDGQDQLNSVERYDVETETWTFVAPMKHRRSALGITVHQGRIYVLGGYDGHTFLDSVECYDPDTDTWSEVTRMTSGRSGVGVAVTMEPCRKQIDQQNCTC

In the case of COc1ccc(Br)cc1CNCC1CCCO1 (stereo not given), the AC50 [1] is reported as > 52 µM (inactive).
With N#C/C(=C\c1c[nH]c2ccccc12)C(=O)NCC1CCCO1 (stereo not given) the IC50 [2] was 5.69 µM (active) and the IC50 [3] was 5.05 µM (active).
With CC1=C[C@@H]2c3cccc4[nH]cc(c34)C[C@H]2N(C)C1 [AGROCLAVINE] the EC50 [4] was 11.2 µM (active), the AC50 [1] was 38.4 µM (active) and the EC50 [5] was 8.67 µM (inconclusive).
With CCOc1ccc(N(CC(=O)Nc2ccccc2)S(C)(=O)=O)cc1 the IC50 [2] was 3.89 µM (active) and the IC50 [3] was 4.76 µM (active).
With c1csc(-c2nn3c(Cn4cnc5ccccc54)nnc3s2)c1 the IC50 [6] was > 64 µM (inactive) and the IC50 [7] was < 0.1 µM (active).
In the case of COc1ccc2nc3ccccc3nc2c1NC(=O)c1ccccc1Cl, the EC50 [4] is reported as > 300 µM (not active), the AC50 [1] is reported as 29.2 µM (active) and the EC50 [5] is reported as > 300 µM (not active).
In the case of C[n+]1cc(-c2ccccc2)n2c1CCCCC2, the IC50 [2] is reported as 1.66 µM (active) and the IC50 [3] is reported as 2.3 µM (active).
For CC(C)(C)c1c(Cl)c(O)c(-c2ccccc2)c(=O)n1-c1ccccc1, the EC50 [8] was 27.2 µM (active), the IC50 [6] was 14.1 µM (active) and the AC50 [9] was 20.1 µM (active). For the same compound, the IC50 [10] was 8.83 µM (active).
With O=C(Nc1ccccc1F)c1ccc(CSc2ncccn2)cc1 the IC50 [2] was 4.88 µM (active) and the IC50 [3] was 9.71 µM (active).
With CSc1ccc(NC(=O)c2ccc(CN3CCCCC3)cc2)cc1 the IC50 [11] was > 20 µM (inactive) and the IC50 [12] was 19.6 µM (active).
With CCOC(=O)C1CCN(C(=O)Cc2cccc3ccccc23)CC1 the IC50 [2] was 5.89 µM (active) and the IC50 [3] was 5.83 µM (active).
